Like-named read-outs stand apart in the source and are kept apart here.
Key:
F. trinervia PEPC = target: T1, F. trinervia PEPC (Flaveria trinervia, UniProt P30694); assay: biochemical; assay type: biochemical
T1 construct: the full-length ppcA gene of PEPC from F. trinervia (EMBL-Bank X61304); made in house; host or cells: Escherichia coli BL21(DE3)
T1 sequence (P30694 1-966): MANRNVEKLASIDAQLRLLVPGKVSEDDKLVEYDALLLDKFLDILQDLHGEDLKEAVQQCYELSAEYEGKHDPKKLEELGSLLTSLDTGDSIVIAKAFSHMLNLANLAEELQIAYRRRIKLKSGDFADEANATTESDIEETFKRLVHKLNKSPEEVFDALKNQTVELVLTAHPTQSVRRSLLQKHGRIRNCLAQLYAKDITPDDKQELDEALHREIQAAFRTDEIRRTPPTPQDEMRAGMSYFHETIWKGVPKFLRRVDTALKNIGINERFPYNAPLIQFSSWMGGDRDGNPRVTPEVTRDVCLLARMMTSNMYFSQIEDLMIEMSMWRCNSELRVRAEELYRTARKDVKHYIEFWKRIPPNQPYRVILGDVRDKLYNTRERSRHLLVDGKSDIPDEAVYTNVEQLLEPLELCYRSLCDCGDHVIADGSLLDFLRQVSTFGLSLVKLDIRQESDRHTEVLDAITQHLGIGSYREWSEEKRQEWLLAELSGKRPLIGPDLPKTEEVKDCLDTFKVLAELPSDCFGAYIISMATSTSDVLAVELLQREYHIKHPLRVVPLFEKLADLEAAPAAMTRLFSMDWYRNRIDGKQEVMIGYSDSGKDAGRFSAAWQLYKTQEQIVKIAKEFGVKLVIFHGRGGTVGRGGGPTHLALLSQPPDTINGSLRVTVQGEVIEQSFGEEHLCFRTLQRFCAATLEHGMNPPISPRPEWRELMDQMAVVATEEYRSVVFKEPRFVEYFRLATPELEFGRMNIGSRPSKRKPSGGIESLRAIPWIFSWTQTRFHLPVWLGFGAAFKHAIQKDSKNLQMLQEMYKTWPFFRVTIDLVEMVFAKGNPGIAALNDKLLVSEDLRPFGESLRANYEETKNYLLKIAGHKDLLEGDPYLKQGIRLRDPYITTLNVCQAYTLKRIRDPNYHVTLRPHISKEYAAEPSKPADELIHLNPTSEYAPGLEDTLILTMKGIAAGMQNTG

Bacillus subtilis 168 = assay: Bacterial growth in microscale cultivation, B. subtilis; assay type: cell-based; conditions: relative to control
Method in brief: (§1)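 In a BioLector microscale system shaken at 1200 rpm, growth was tracked by backscatter at 620 nm, and final signal, growth rate (h⁻¹) and lag-phase length were scored against DMSO-only controls. Starting OD600 was 0.5, or 0.25 for B. subtilis. Inhibitors came from DMSO stocks, with trans-chalcone capped at 400 μM and 2'-hydroxychalcone at 100 μM.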

[1] = test system: Pseudomonas putida KT2440; assay: Bacterial growth in microscale cultivation, P. putida; assay type: cell-based; conditions: relative to control; for activity at 0.3 µM / activity at 3 µM / activity at 30 µM: Pseudomonas putida
Method in brief: as §1

For `O=C(/C=C/c1cc(O)c(O)c(O)c1)c1ccc(O)cc1O` [Compound 9, 2′,4′,3,4,5-Pentahydroxychalcone], the “Selectivity C4/C3” value (F. trinervia PEPC; C4 PEPC over C3 isoform) was 8.1 fold, the IC50 (F. trinervia PEPC; C4 PEPC, read-out: IC50 F. trinervia PEPC) was 4.2 ± 1.4 µM and the activity at 0.3 µM (Bacillus subtilis 168; Bacillus subtilis, 168, complex medium, 0.3 µM, read-out: Final Backscatter) was 100%. It also gave an activity at 0.3 µM (Bacillus subtilis 168; Bacillus subtilis, 168, complex medium, 0.3 µM, read-out: Growth rate) of 111%, an activity at 3 µM (Bacillus subtilis 168; Bacillus subtilis, 168, complex medium, 3 µM, read-out: Final Backscatter) of 99.7% and an activity at 3 µM (Bacillus subtilis 168; Bacillus subtilis, 168, complex medium, 3 µM, read-out: Growth rate) of 112%. The activity at 30 µM (Bacillus subtilis 168; Bacillus subtilis, 168, complex medium, 30 µM, read-out: Final Backscatter) was 98.6%, the activity at 30 µM (Bacillus subtilis 168; Bacillus subtilis, 168, complex medium, 30 µM, read-out: Growth rate) was 104% and the activity at 0.3 µM (Bacillus subtilis 168; Bacillus subtilis, 168, minimal medium, 0.3 µM, read-out: Final Backscatter) was 104%. It also gave an activity at 0.3 µM (Bacillus subtilis 168; Bacillus subtilis, 168, minimal medium, 0.3 µM, read-out: Growth rate) of 99.6%, an activity at 3 µM (Bacillus subtilis 168; Bacillus subtilis, 168, minimal medium, 3 µM, read-out: Final Backscatter) of 103% and an activity at 3 µM (Bacillus subtilis 168; Bacillus subtilis, 168, minimal medium, 3 µM, read-out: Growth rate) of 101%. For the same compound, the activity at 30 µM (Bacillus subtilis 168; Bacillus subtilis, 168, minimal medium, 30 µM, read-out: Final Backscatter) was 107%, the activity at 30 µM (Bacillus subtilis 168; Bacillus subtilis, 168, minimal medium, 30 µM, read-out: Growth rate) was 90.7% and the “Lag Phase” value (Bacillus subtilis 168; complex medium, 0.3 µM) was 100,0%. For the same compound, the “Lag Phase” value (Bacillus subtilis 168; complex medium, 3 µM) was 100,0%, the “Lag Phase” value (Bacillus subtilis 168; complex medium, 30 µM) was 97,4% and the “Lag Phase” value (Bacillus subtilis 168; minimal medium, 0.3 µM) was 91,7%. For the same compound, the “Lag Phase” value (Bacillus subtilis 168; minimal medium, 3 µM) was 98,8%, the “Lag Phase” value (Bacillus subtilis 168; minimal medium, 30 µM) was 94,1% and the activity at 0.3 µM ([1]; KT2440, complex medium, 0.3 µM, read-out: Final Backscatter) was 94.7%. It also gave an activity at 0.3 µM ([1]; KT2440, complex medium, 0.3 µM, read-out: Growth rate) of 99.4%, an activity at 3 µM ([1]; KT2440, complex medium, 3 µM, read-out: Final Backscatter) of 96.9% and an activity at 3 µM ([1]; KT2440, complex medium, 3 µM, read-out: Growth rate) of 101%. For the same compound, the activity at 30 µM ([1]; KT2440, complex medium, 30 µM, read-out: Final Backscatter) was 93%, the activity at 30 µM ([1]; KT2440, complex medium, 30 µM, read-out: Growth rate) was 102% and the activity at 0.3 µM ([1]; KT2440, minimal medium, 0.3 µM, read-out: Final Backscatter) was 93.1%. It also gave an activity at 0.3 µM ([1]; KT2440, minimal medium, 0.3 µM, read-out: Growth rate) of 109%, an activity at 3 µM ([1]; KT2440, minimal medium, 3 µM, read-out: Final Backscatter) of 96.5% and an activity at 3 µM ([1]; KT2440, minimal medium, 3 µM, read-out: Growth rate) of 108%. The activity at 30 µM ([1]; KT2440, minimal medium, 30 µM, read-out: Final Backscatter) was 98.3%, the activity at 30 µM ([1]; KT2440, minimal medium, 30 µM, read-out: Growth rate) was 108% and the “Lag Phase” value ([1]; complex medium, 0.3 µM) was 101,2%. For the same compound, the “Lag Phase” value ([1]; complex medium, 3 µM) was 102,4%, the “Lag Phase” value ([1]; complex medium, 30 µM) was 99,4% and the “Lag Phase” value ([1]; minimal medium, 0.3 µM) was 99,0%. For the same compound, the “Lag Phase” value ([1]; minimal medium, 3 µM) was 99,3% and the “Lag Phase” value ([1]; minimal medium, 30 µM) was 99,7%.
